PMC11026403 (Communications Biology, 2024)
pIC50: −log10 of the molar value.

Molecular target: A/Denmark/524/2009 (H1N1)pdm09 NA-H274 (Influenza A virus, UniProt C3W5S3)
Assay type: biochemical

CCC(CC)[C@H](NC(C)=O)[C@@H]1[C@H](O)[C@@H](C(=O)O)C[C@H]1N=C(N)N [peramivir]
pIC50: 10.00
